pIC50: −log10 of the molar value.
Target: T1, APOL1 (Homo sapiens, UniProt O14791)
T1 sequence (O14791 1-398 S342G/I384M): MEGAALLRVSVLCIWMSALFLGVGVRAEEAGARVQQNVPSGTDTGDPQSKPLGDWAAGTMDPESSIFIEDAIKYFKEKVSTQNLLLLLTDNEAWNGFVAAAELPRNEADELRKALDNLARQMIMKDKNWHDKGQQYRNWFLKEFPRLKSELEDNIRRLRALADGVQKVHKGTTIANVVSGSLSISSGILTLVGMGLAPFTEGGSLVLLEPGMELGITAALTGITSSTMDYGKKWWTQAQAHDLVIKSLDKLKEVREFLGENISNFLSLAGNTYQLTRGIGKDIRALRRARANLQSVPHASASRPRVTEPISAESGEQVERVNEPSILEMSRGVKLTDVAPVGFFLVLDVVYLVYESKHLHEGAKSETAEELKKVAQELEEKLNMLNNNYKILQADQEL
Assay: MultiTox-Fluor Multiplex Cytotoxicity Assay in tet-inducible APOL1 T-REx-HEK293 cells (cell rescue, ratio of dead to live cells)
Format: cell-based
Details: tet-inducible transgenic APOL1 T-REx-HEK293 cell lines, 50 ng/mL tet, 24 hours; read-out: IP50 (i.e., IC50 for cell proliferation)
In short: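 T-REx-HEK293 cells with tet-inducible APOL1 were treated with compound (10 μM top, 10-point 3-fold dilution, duplicate) plus 50 ng/mL tetracycline for 24 h at 37° C, in DMEM with 2% tet-free FBS. MultiTox-Fluor protease signals gave a dead/live ratio, normalized to no tet (100% viability) and tet alone (0%).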

SMILES	pIC50
CCc1cc2c(s1)CCO[C@@]21CCN(CC2CN(C(=O)c3nonc3N)C2)[C@@H](C)C1 [Compound 422, (4-amino-1,2,5-oxadiazol-3-yl)-[3-[[(2′S,4R)-2-ethyl-2′-methyl-spiro[6,7-dihydrothieno[3,2-c]pyran-4,4′-piperidine]-1′-yl]methyl]azetidin-1-yl]methanone]	> 7.00
C[C@H]1C[C@@]2(CCN1CC1(C)COC1)OCCc1cc(Cl)sc12 [Compound 676]	6.30 to 7.00
CC(O)Cn1cc(CN2CC[C@]3(C[C@@H]2C)OCCc2cc(CC(F)F)sc23)nn1 (stereo partly drawn) [Compound 543, 1-[4-[[(2′S, 7R)-2-(2,2-difluoroethyl)-2′-methyl-spiro[4,5-dihydrothieno[2,3-c]pyran-7,4′-piperidine]-1′-yl]methyl]triazol-1-yl]propan-2-ol]	> 7.00
CCc1cc2c(s1)CCO[C@@]21CCN(C[C@H]2C[C@@H](NS(=O)(=O)c3cccs3)C2)[C@@H](C)C1 [Compound 405]	> 7.00
CCc1cc2c(s1)CCO[C@@]21CCN(Cc2cn(CC3(O)COC3)nn2)[C@@H](C)C1 [Compound 146]	> 7.00
C[C@H]1C[C@@]2(CCN1Cc1cnn(CCC(N)=O)c1)OC[C@@H](O)c1cc(C(F)(F)F)sc12 [Compound 926]	> 7.00
CCc1cc2c(s1)CCO[C@@]21CCN(C[C@H]2C[C@@H](NC(=O)CNS(C)(=O)=O)C2)[C@@H](C)C1 [Compound 364]	6.30 to 7.00
CCc1cc2c(s1)CCO[C@@]21CCN(Cc2ccon2)[C@@H](C)C1 [Compound 279, (2′S,4R)-2-ethyl-1′-(isoxazol-3-ylmethyl)-2′-methyl-spiro[6,7-dihydrothieno[3,2-c]pyran-4,4′-piperidine]]	> 7.00
CCc1cc2c(s1)CCOC21CCN(Cc2ccc(NC3(CO)CC3)nc2)CC1 [Compound 1070]	6.30 to 7.00
CC(O)CN1CC[C@]2(C[C@@H]1C)OCCc1cc(CC(F)F)sc12 (stereo partly drawn) [Compound 613, 1-((2S,4R)-2′-(2,2-difluoroethyl)-2-methyl-4′,5′-dihydrospiro[piperidine-4,7′-thieno[2,3-c]pyran]-1-yl)propan-2-ol]	6.30 to 7.00
CCc1cc2c(s1)CCOC21CCN(Cc2cn(CC3CC(=O)N(CCOC)C3)nn2)C(C)C1 (stereo not drawn) [Compound 116]	6.30 to 7.00
CCc1cc2c(s1)CCO[C@@]21CCN(CC2CN(C(=O)CCS(N)(=O)=O)C2)[C@@H](C)C1 [Compound 453]	6.30 to 7.00
C[C@H]1C[C@@]2(CCN1CCCn1cccn1)OCCc1cc(Cl)sc12 [Compound 642]	6.00 to 6.30
CCc1cc2c(s1)CCO[C@@]21CCN(CC2CN(C(=O)c3cnc(C#N)nc3)C2)[C@@H](C)C1 [Compound 458]	6.30 to 7.00
CCc1cc2c(s1)CCOC21CCN(Cc2ccncc2)CC1 [Compound 1153]	6.00 to 6.30
CCc1cc2c(s1)CCOC21CCN(Cc2cn(CC(O)C(C)(C)O)nn2)C(C)C1 (stereo not drawn) [Compound 123]	> 7.00
Cc1cc2c(s1)CCO[C@@]21CCN(Cc2cnn(CCS(C)(=O)=O)c2)[C@H](C)C1 [Compound 517]	6.30 to 7.00
Cc1cncc(CN2CC[C@]3(C[C@@H]2C)OC[C@H](O)c2cc(Cl)sc23)c1 [Compound 809]	6.30 to 7.00
C[C@H]1C[C@@]2(CCN1Cc1cnn(CC(O)C3(O)CCC3)c1)OC[C@@H](O)c1cc(C(F)(F)F)sc12 (stereo partly drawn) [Compound 979]	> 7.00
C[C@H]1C[C@@]2(CCN1Cc1cnn(CC3(O)CCS(=O)(=O)CC3)c1)OCCc1c2sc(C(F)(F)F)c1CO [Compound 947]	> 7.00
CCc1cc2c(s1)[C@]1(CCN(Cc3cnn(CCS(C)(=O)=O)c3)[C@@H](C)C1)OCC2O (stereo partly drawn) [Compound 1037, (2′S, 7R)-2-ethyl-2′-methyl-1′-[[1-(2-methylsulfonylethyl)pyrazol-4-yl]methyl]spiro[4,5-dihydrothieno[2,3-c]pyran-7,4′-piperidine]-4-ol]	> 7.00
COc1cccc(CN2CC[C@]3(C[C@@H]2C)OC[C@H](O)c2cc(Cl)sc23)n1 [Compound 782]	6.00 to 6.30
CCc1cc2c(s1)CCOC21CCN(Cc2cncnc2)CC1 [Compound 1156]	6.00 to 6.30
CCc1cc2c(s1)CCO[C@@]21CCN(C[C@H]2C[C@@H](NC(=O)c3ccncc3C)C2)[C@@H](C)C1 [Compound 340]	> 7.00
CC(=O)OC1CO[C@@]2(CCN(Cc3cnn(CCS(C)(=O)=O)c3)[C@@H](C)C2)c2sc(Cl)cc21 (stereo partly drawn) [Compound 847, [(2′S, 7R)-2-chloro-2′-methyl-1′-[[1-(2-methylsulfonylethyl)pyrazol-4-yl]methyl]spiro[4,5-dihydrothieno[2,3-c]pyran-7,4′-piperidine]-4-yl]acetate]	> 7.00
CCc1cc2c(s1)CCO[C@@]21CCN(C[C@H]2C[C@@H](NS(=O)(=O)CC(=O)OC)C2)[C@@H](C)C1 [Compound 392]	6.00 to 6.30

SMILES	pIC50
CCc1cc2c(s1)C(CC)COC21CCN(Cc2cn(CCS(C)(=O)=O)nn2)CC1 (stereo not drawn) [Compound 1182, 2,7-diethyl-1′-[[1-(2-methylsulfonylethyl)triazol-4-yl]methyl]spiro[6,7-dihydrothieno[3,2-c]pyran-4,4′-piperidine]]	6.00 to 6.30
C[C@H]1C[C@@]2(CCN1Cc1cnn(CC(O)C3(O)CCOC3)c1)OC[C@@H](O)c1cc(C(F)(F)F)sc12 (stereo partly drawn) [Compound 971]	> 7.00
CCc1cc2c(s1)CCO[C@@]21CCN(Cc2cnc(N[C@H]3CCCC[C@@H]3O)nc2)[C@@H](C)C1 [Compound 209]	> 7.00
CCc1cc2c(s1)CCOC21CCN(Cc2cn(CC(=O)NC3COC3)nn2)CC1 [Compound 1122]	6.00 to 6.30
CCc1cc2c(s1)CCO[C@@]21CCN(Cc2cnn(CCS(=O)(=O)NC)c2)[C@@H](C)C1 [Compound 264, 2-[4-[[(2′S,4R)-2-ethyl-2′-methyl-spiro[6,7-dihydrothieno[3,2-c]pyran-4,4′-piperidine]-1′-yl]methyl]pyrazol-1-yl]-N-methyl-ethanesulfonamide]	> 7.00
CCc1cc2c(s1)CCOC21CCN(Cc2cn(CC(O)C(C)(C)O)nn2)CC1 (stereo not drawn) [Compound 1079, 1-(4-((2′-ethyl-6′,7′-dihydrospiro[piperidine-4,4′-thieno[3,2-c]pyran]-1-yl)methyl)-1H-1,2,3-triazol-1-yl)-3-methylbutane-2,3-diol]	6.30 to 7.00
CCc1cc2c(s1)CCO[C@@]21CCN(C[C@H]2C[C@@H](NS(=O)(=O)Cc3ccccc3)C2)[C@@H](C)C1 [Compound 398]	> 7.00
C[C@H]1C[C@@]2(CCN1Cc1cnn(CC(O)C3(O)CCCC3)c1)OCCc1c2sc(C(F)(F)F)c1CO (stereo partly drawn) [Compound 955]	> 7.00
C[C@H]1C[C@@]2(CCN1Cc1cnn(CC(C)(CO)CO)c1)OCCc1c2sc(C(F)(F)F)c1CO [Compound 876]	> 7.00
CCc1cc2c(s1)[C@]1(CCN(Cc3cn(CCS(C)(=O)=O)nn3)[C@@H](C)C1)OCC2 [Compound 1036, (2′S, 7R)-2-ethyl-2′-methyl-1′-[[1-(2-methylsulfonylethyl)triazol-4-yl]methyl]spiro[4,5-dihydrothieno[2,3-c]pyran-7,4′-piperidine]]	> 7.00
CCc1cc2c(s1)CCO[C@@]21CCN(CC(C)C)[C@@H](C)C1 [Compound 276]	6.00 to 6.30
COc1ccc(CN2CC[C@]3(C[C@@H]2C)OCCc2cc(Cl)sc23)cn1 [Compound 662]	> 7.00
CCc1cc2c(s1)CCO[C@@]21CCN(C[C@H]2C[C@@H](NC(=O)CC(C)(C)O)C2)[C@@H](C)C1 [Compound 346]	> 7.00
CCc1cc2c(s1)CCOC21CCN(Cc2cnn(CCS(C)(=O)=O)c2)CC1 [Compound 1130]	6.30 to 7.00
CCc1cc2c(s1)CCO[C@@]21CCN(Cc2cn(CC3CCCCS3(=O)=O)nn2)[C@@H](C)C1 (stereo partly drawn) [Compound 158]	> 7.00
C[C@H]1C[C@@]2(CCN1Cc1cn(CCS(C)(=O)=O)nn1)OCCc1sc(C(F)F)cc12 [Compound 524, (2′S,4R)-2-(difluoromethyl)-2′-methyl-1′-[[1-(2-methylsulfonylethyl)triazol-4-yl]methyl]spiro[6,7-dihydrothieno[3,2-c]pyran-4,4′-piperidine]]	> 7.00
CCc1cc2c(s1)CCOC21CCN(Cc2cn(C3CC(F)(F)C3)nn2)CC1 [Compound 1105]	6.00 to 6.30
CCc1cc2c(s1)C(C)COC21CCN(Cc2cnn(C)c2)CC1 (single isomer, unassigned) [Compound 1170, 2-ethyl-7-methyl-1′-[(1-methylpyrazol-4-yl)methyl]spiro[6,7-dihydrothieno[3,2-c]pyran-4,4′-piperidine]]	6.30 to 7.00
CCc1cc2c(s1)CCO[C@@]21CCN(Cc2cn(C3CN(S(=O)(=O)c4c[nH]cn4)C3)nn2)[C@@H](C)C1 [Compound 2]	> 7.00
CCc1ncc(CN2CC[C@]3(C[C@@H]2C)OCCc2cc(Cl)sc23)cn1 [Compound 653]	6.30 to 7.00
CCc1cc2c(s1)CCO[C@@]21CCN(CC2CN(C(=O)C(=O)c3cnc[nH]3)C2)[C@@H](C)C1 [Compound 482]	> 7.00
CCc1cc2c(s1)CCO[C@@]21CCN(C[C@H]2C[C@@H](NC(C)=O)C2)[C@@H](C)C1 [Compound 384]	6.30 to 7.00
CCc1cc2c(s1)CCOC21CCN(Cc2cn(CCN3CCC(O)C3)nn2)CC1 (stereo not drawn) [Compound 1104]	6.00 to 6.30
C[C@H]1C[C@@]2(CCN1Cc1cn(CCS(C)(=O)=O)nn1)OCC(O)c1cc(Cl)sc12 (stereo partly drawn) [Compound 823]	6.30 to 7.00
CCc1cc2c(s1)CCOC21CCN(Cc2cn(CC(C)(CO)COC)nn2)C(C)C1 (stereo not drawn) [Compound 101]	6.30 to 7.00
